Tested on: temozolomide-resistant EGFRvIII/Arfko GBM (NSCG) cells
Assay: Survival of mice after intracranial injection of NSCG tumors
Format: in vivo, FVBN mice
Conditions: ABDNAZ 10 mg/kg intraperitoneal, temozolomide 40 mg/kg oral gavage
Method: Mice implanted with temozolomide-resistant EGFRvIII/Arfko GBM (NSCG) cells were treated with (i) ABDNAZ (RRx-001, 10 mg/kg, intraperitoneal injection), (ii) temozolomide (TMZ)(40 mg/kg, oral gavage), or (iii) ABDNAZ (10 mg/kg, intraperitoneal injection) and temozolomide (40 mg/kg, oral gavage).
NSCG tumors were intracranially injected into FVBN mice. Mice to be treated were treated with one of the following (i) ABDNAZ (10 mg/kg, intraperitoneal injection), (ii) temozolomide (40 mg/kg, oral gavage), or (iii) ABDNAZ (10 mg/kg, intraperitoneal injection) and temozolomide (40 mg/kg, oral gavage). In a first experiment, treatment (i.e., administration of ABDNAZ (RRx-001), temozolomide (TMZ), or both ABDNAZ and temozolomide) was started five days after intracranial injection of NSCG cells. The control population of mice contained ten mice, the group receiving only ABDNAZ had twelve mice, the group receiving only temozolomide had twelve mice, and the group receiving both ABDNAZ and temozolomide had sixteen mice. Mouse survival was monitored over time.
In a second experiment, treatment (i.e., administration of ABDNAZ (RRx-001), temozolomide (TMZ), or both ABDNAZ and temozolomide) was started ten days after intracranial injection of NSCG cells. The control population of mice contained three mice, the group receiving only ABDNAZ had five mice, the group receiving only temozolomide had four mice, and the group receiving both ABDNAZ and temozolomide had six mice. Mouse survival was monitored over time.

[1] = treatment started five days after intracranial injection of NSCG cells, control 22.2
[2] = treatment started ten days after intracranial injection of NSCG cells, control 22.1

SMILES	Median Survival Time [1]	Median Survival Time [2]
O=C(CBr)N1CC([N+](=O)[O-])([N+](=O)[O-])C1 [ABDNAZ]	25.3 days	22.5 days
Cn1nnc2c(C(N)=O)ncn2c1=O [TMZ, 3,4-dihydro-3-methyl-4-oxoimidazo[5,1-d]-as-tetrazine-8-carboxamide]	22.3 days	22.3 days

Reference: US10543208B2, “Treatment of gliomas using organonitro compound combination therapy” (priority 2015, dated 2020)
